Source: patent US12220550B2, “Transdermal delivery device, methods of using and making the same” (BUDDHIST TZU CHI MEDICAL FOUNDATION, priority 2021, dated 2025)

Test: In vitro drug release from drug-loaded MNs
Format: physicochemical
Conditions: from IPN hydrogel MNs, PBS pH 7.4, 37° C., 100 rpm, first 24 hours
Experimental: The drug-loaded MNs were soaked in 10 mL of PBS solution (pH 7.4) and put in a shaking incubator at 37° C. and 100 rpm to simulate the real drug release environment. About 2.5 mL of the release medium was withdrawn and replenished with an equivalent volume of PBS every half hour for the first 4 hours. Similarly, the released medium was collected at the 5th, 6th, 8th, 12th, and 24th hour followed by every 24 h for 7 days. Then, the cumulative drug released was determined by measuring the UV-Vis absorbance of DOX and LPS at 485 nm and 256 nm, respectively, and then calculated using the standard calibration curve of the free drugs, as shown in FIGS. 14A and B.
Drug release behavior of IPN hydrogel was examined. First, DOX and/or LPS were loaded into the hydrogel by simple mixing with IPN hydrogel pre-gel solution (0.5 mg DOX/MNs and 0.2 mg LPS/MNs) followed by casting MNs and sequential photo-ionic crosslinking to obtained drug loaded solid MNs arrays (DOX loaded MN, LPS loaded MN and LPS/DOX loaded MN). Then, drug loaded MNs were immersed in 10 mL PBS solution and kept in an orbital shaker incubator with a rotation of 100 rpm at 37° C.

Compound	cumulative drug release [%]
COc1cccc2c1C(=O)c1c(O)c3c(c(O)c1C2=O)C[C@@](O)(C(=O)CO)C[C@@H]3O[C@H]1C[C@H](N)[C@H](O)[C@H](C)O1 [DOX, doxorubicin]	~66.1±7.4
lipopolysaccharide [LPS]	~59.4±5.5
